One test deals with T1, K-Ras G12S (Homo sapiens, UniProt P01116, G12S).
T1 construct: made in house; host or cells: E. coli, e.g. BL21 (DE3)
Kind of test: PPI-HTRF assay, K-Ras G12S / SOS1 interaction. Type of test: biochemical. The method, boiled down:
(§1)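 GST-tagged K-Ras (G12D, G12V, G12S or wildtype) with anti-GST-Eu(K) donor was mixed with His-hSOS1 and anti-6His-XL665 acceptor in HEPES pH 7.4 buffer with NaCl, DTT, BSA and Igepal. After about 10 min, HTRF was read (ex 337 nm, em 620/665 nm). IC50 came from the 665/620 ratio, with duplicates from 10 μM down to 0.01 μM.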

The target in another test is T2, wildtype K-Ras (Homo sapiens, UniProt P01116).
T2 construct: made in house; host or cells: E. coli, e.g. BL21 (DE3)
T2 sequence (P01116 1-188 isoform P01116-2): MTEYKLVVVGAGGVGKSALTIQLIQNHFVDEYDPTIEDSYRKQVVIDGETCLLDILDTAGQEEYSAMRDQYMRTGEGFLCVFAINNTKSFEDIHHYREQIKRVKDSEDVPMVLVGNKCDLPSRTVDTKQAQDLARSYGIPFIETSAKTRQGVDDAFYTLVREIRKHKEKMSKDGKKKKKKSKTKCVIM
The test is described as follows: PPI-HTRF assay, wildtype K-Ras / SOS1 interaction. Format: biochemical. The method, boiled down:
as §1

The next test relates to SW620 cells. The test is described as follows: Ras cellular assay, cell proliferation SW620. Type of test: cell-based. The settings on record: Homo sapiens, SW-620. The source says: For example, this assay can be also used to assess selective growth inhibition of a mutant Ras protein relative to a wildtype, or relative to a different mutant Ras protein.
The target of another test is T3, K-Ras G12V (Homo sapiens, UniProt P01116, G12V).
T3 construct: made in house; host or cells: E. coli, e.g. BL21 (DE3)
T3 sequence (P01116 1-188 isoform P01116-2 G12V): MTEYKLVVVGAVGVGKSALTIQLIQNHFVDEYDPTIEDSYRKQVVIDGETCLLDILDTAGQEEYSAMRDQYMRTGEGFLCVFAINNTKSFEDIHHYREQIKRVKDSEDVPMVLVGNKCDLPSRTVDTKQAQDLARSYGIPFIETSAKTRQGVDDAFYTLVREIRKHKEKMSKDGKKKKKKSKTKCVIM
Kind of test: PPI-HTRF assay, K-Ras G12V / SOS1 interaction. Type of test: biochemical. The procedure, abridged: as §1
A general note: In TR-FRET formats the signal depends on donor and acceptor labels being close together.

The test system of a further test is GP2D cells. Kind of test: Ras cellular assay, cell proliferation GP2D. Type of test: cell-based. The method, boiled down:
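GP2D cells (G12D Ras mutant) seeded (e.g., 800/well) and treated the next day with a dilution series (e.g., 9-point, 3-fold). After approximately 5 days, viability measured by CellTiter-Glo luminescence; IC50 from four-parameter fit.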

A further test relates to A549 cells. Kind of test: Ras cellular assay, cell proliferation A549. Format: cell-based. The note with it: Homo sapiens. The method, boiled down: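 G12S-mutant A549 cells (800/well) in RPMI-1640 plus 10% heat-inactivated FBS, standard or ultra-low attachment 384-well plates, dosed the day after plating with a 10-point 3-fold series. Viability by CellTiter-Glo luminescence about 6 days later; IC50 from four-parameter fit.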

Another test concerns the target T4, K-Ras G12D (Homo sapiens, UniProt P01116, G12D).
T4 construct: made in house; host or cells: E. coli, e.g. BL21 (DE3)
Kind of test: PPI-HTRF assay, K-Ras G12D / SOS1 interaction. Format: biochemical. The procedure, abridged: as §1

Setting [1] is: read-out: PPI-HTRF-5 nM (K-Ras G12S IC50).
Where [2] appears, read: HTRF, K-Ras wt, read-out: PPI-HTRF-5 nM (K-Ras wt IC50).
[3] abbreviates: HTRF, K-Ras G12V, read-out: PPI-HTRF-5 nM (K-Ras G12V IC50).
The mark [4] stands for this setting: HTRF, K-Ras G12D, read-out: PPI-HTRF-5 nM (K-Ras G12D IC50).

Read-outs that look alike come from different tables or passages of the source.

T4 sequence (P01116 1-188 isoform P01116-2 G12D): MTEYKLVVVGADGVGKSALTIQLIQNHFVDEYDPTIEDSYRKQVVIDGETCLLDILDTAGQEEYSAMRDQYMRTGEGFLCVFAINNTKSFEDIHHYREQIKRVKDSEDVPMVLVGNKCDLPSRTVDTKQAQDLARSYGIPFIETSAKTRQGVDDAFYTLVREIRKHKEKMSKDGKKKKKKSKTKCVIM
T1 sequence (P01116 1-188 isoform P01116-2 G12S): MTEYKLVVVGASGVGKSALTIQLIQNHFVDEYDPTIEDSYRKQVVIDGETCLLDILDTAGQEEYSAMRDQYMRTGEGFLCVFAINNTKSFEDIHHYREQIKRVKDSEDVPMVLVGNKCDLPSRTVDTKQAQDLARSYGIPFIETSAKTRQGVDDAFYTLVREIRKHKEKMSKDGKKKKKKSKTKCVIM

For the compound `N#Cc1c(N)sc2c(F)ccc(-c3c(Cl)c4c5c(nc(OC[C@@]67CCCN6C[C@H](F)C7)nc5c3F)N3CCCC3CO4)c12` (stereo partly drawn) [compound 137, 2-amino-4-(6-chloro-4-fluoro-2-(((2R,7aS)-2-fluorotetrahydro-1H-pyrrolizin-7a(5H)-yl)methoxy)-8a,9,10,11-tetrahydro-8H-pyrrolo[2′,1′:3,4][1,4]oxazepino[5,6,7-de]quinazolin-5-yl)-7-fluorobenzo[b]thiophene-3-carbonitrile], the IC50 on K-Ras G12S (setting [1]), at wildtype K-Ras (setting [2]), in the test with SW620 cells, on K-Ras G12V (setting [3]), with GP2D cells and in the test on A549 cells was less than 5 µM in each case. For the same compound, the IC50 (in general, the concentration that inhibits the measured activity by half) at K-Ras G12D (setting [4]) was less than 5 µM.
Regarding `CN1c2nc(OC[C@@]34CCCN3C[C@H](F)C4)nc3c(F)c(-c4ccc(F)c5sc(N)c(C#N)c45)c(Cl)c(c23)OC2CN(C(=O)C3N[C@H]3C3CC3)CC21` (stereo partly drawn) [compound 108, 2-amino-4-(6-chloro-9-((3S)-3-cyclopropylaziridine-2-carbonyl)-4-fluoro-2-(((2R,7aS)-2-fluorotetrahydro-1H-pyrrolizin-7a(5H)-yl)methoxy)-11-methyl-7a,8,9,10,10a,11-hexahydropyrrolo[3′,4′:2,3][1,4]oxazepino [5,6,7-de]quinazolin-5-yl)-7-fluorobenzo[b]thiophene-3-carbonitrile], the IC50 against K-Ras G12S (PPI-HTRF-5 nM (K-Ras G12S IC50)) is less than 5 µM; on wildtype K-Ras, less than 5 µM; in the test with SW620 cells, greater than 5 µM; against K-Ras G12V, less than 5 µM; in the test with GP2D cells, less than 5 µM; with A549 cells, greater than 5 µM. Further, the IC50 against K-Ras G12D was less than 5 µM.
Consider `N#Cc1c(N)sc2c(F)ccc(-c3c(Cl)c4c5c(nc(OCC67CCCN6C[C@H](F)C7)nc5c3F)N3CCC[C@H]3CO4)c12` (stereo partly drawn) [compound 159, 2-amino-4-((12aS)-10-chloro-8-fluoro-6-(((2R)-2-fluorotetrahydro-1H-pyrrolizin-7a(5H)-yl)methoxy)-2,3,12,12a-tetrahydro-1H-pyrrolo[2′,1′:3,4][1,4]oxazepino[5,6,7-de]quinazolin-9-yl)-7-fluorobenzo[b]thiophene-3-carbonitrile], for which the IC50 at K-Ras G12S (setting [1]), at wildtype K-Ras (setting [2]), with SW620 cells, on K-Ras G12V (setting [3]), with GP2D cells and in the test with A549 cells was less than 5 µM in each case. Besides, the IC50 on K-Ras G12D (setting [4]) is less than 5 µM.
`N#Cc1c(N)sc2c(F)ccc(-c3c(Cl)c4c5c(nc(OC[C@@]67CCCN6C[C@H](F)C7)nc5c3F)N(CC(F)F)C3CNCC3O4)c12` (stereo partly drawn) [compound 175, 2-amino-4-(6-chloro-11-(2,2-difluoroethyl)-4-fluoro-2-(((2R,7aS)-2-fluorotetrahydro-1H-pyrrolizin-7a(5H)-yl)methoxy)-7a,8,9,10,10a,11-hexahydropyrrolo[3′,4′:2,3][1,4]oxazepino [5,6,7-de]quinazolin-5-yl)-7-fluorobenzo[b]thiophene-3-carbonitrile]: the IC50 at K-Ras G12S (setting [1]), at wildtype K-Ras (setting [2]), in the test with SW620 cells, on K-Ras G12V (setting [3]), in the test with GP2D cells and in the test with A549 cells was less than 5 µM each time. In addition, the IC50 at K-Ras G12D (setting [4]) was less than 5 µM.
On to `N#Cc1c(N)sc2c(F)ccc(-c3c(Cl)c4c5c(nc(OC[C@@]67CCCN6C[C@H](F)C7)nc5c3F)N3[C@H](CO4)C[C@@H]4OCC[C@@H]43)c12` [compound 133, 2-amino-4-((5aS,6aS,9aS)-3-chloro-1-fluoro-12-(((2R,7aS)-2-fluorotetrahydro-1H-pyrrolizin-7a(5H)-yl)methoxy)-5a,6,6a,8,9,9a-hexahydro-5H-furo[2″,3″:4′,5′]pyrrolo[2′,1′:3,4][1,4]oxazepino[5,6,7-de]quinazolin-2-yl)-7-fluorobenzo[b]thiophene-3-carbonitrile], for which the IC50 at K-Ras G12S (setting [1]), on wildtype K-Ras (setting [2]), in the test with SW620 cells, on K-Ras G12V (setting [3]), in the test with GP2D cells and with A549 cells was less than 5 µM in each case. In addition, the IC50 at K-Ras G12D (setting [4]) was less than 5 µM.
On to `N#Cc1c(N)sc2c(F)ccc(-c3c(Cl)c4c5c(nc(OC[C@@]67CCCN6C[C@H](F)C7)nc5c3F)N3Cc5ccnn5CCC3CO4)c12` (stereo partly drawn) [compound 134, 2-amino-4-(3-chloro-1-fluoro-15-(((2R,7aS)-2-fluorotetrahydro-1H-pyrrolizin-7a(5H)-yl)methoxy)-5,5a,6,7-tetrahydro-12H-pyrazolo[5″,1″:3′,4′][1,4]diazepino[7′,1′:3,4][1,4]oxazepino[5,6,7-de]quinazolin-2-yl)-7-fluorobenzo[b]thiophene-3-carbonitrile], for which the IC50 on K-Ras G12S (setting [1]), on wildtype K-Ras (setting [2]), in the test with SW620 cells, at K-Ras G12V (setting [3]), with GP2D cells and in the test with A549 cells was less than 5 µM in each case. For the same compound, on K-Ras G12D (setting [4]), the IC50 is less than 5 µM.
Regarding `CN1c2nc(OC[C@@]34CCCN3C[C@H](F)C4)nc3c(F)c(-c4ccc(F)c5sc(N)c(C#N)c45)c(Cl)c(c23)OC2CNCC21` (stereo partly drawn) [compound 214, 2-amino-4-(6-chloro-4-fluoro-2-(((2R,7aS)-2-fluorotetrahydro-1H-pyrrolizin-7a(5H)-yl)methoxy)-11-methyl-7a,8,9,10,10a,11-hexahydropyrrolo[3′,4′:2,3][1,4]oxazepino [5,6,7-de]quinazolin-5-yl)-7-fluorobenzo[b]thiophene-3-carbonitrile], the IC50 on K-Ras G12S (setting [1]) is less than 5 µM; on wildtype K-Ras (setting [2]), less than 5 µM; with SW620 cells it was greater than 5 µM; at K-Ras G12V (setting [3]), less than 5 µM; with GP2D cells it was greater than 5 µM; in the test with A549 cells, greater than 5 µM. The IC50 at K-Ras G12D (setting [4]) is less than 5 µM.
Consider `N#Cc1c(N)sc2c(F)ccc(-c3c(Cl)c4c5c(nc(OC[C@@]67CCCN6C[C@H](F)C7)nc5c3F)N3CCNCCC3CO4)c12` (stereo partly drawn) [compound 142, 2-amino-4-(6-chloro-4-fluoro-2-(((2R,7aS)-2-fluorotetrahydro-1H-pyrrolizin-7a(5H)-yl)methoxy)-8a,9,10,11,12,13-hexahydro-8H-[1,4]diazepino[7′,1′:3,4][1,4]oxazepino [5,6,7-de]quinazolin-5-yl)-7-fluorobenzo[b]thiophene-3-carbonitrile], for which the IC50 on K-Ras G12S (setting [1]), at wildtype K-Ras (setting [2]), with SW620 cells, at K-Ras G12V (setting [3]), with GP2D cells and in the test with A549 cells was less than 5 µM each time. The IC50 on K-Ras G12D (setting [4]) was less than 5 µM.
`N#Cc1c(N)sc2c(F)ccc(-c3c(Cl)c4c5c(nc(OC[C@@]67CCCN6C[C@H](F)C7)nc5c3F)N3CCC[C@H]3CCO4)c12` [compound 115, 2-amino-4-((13aS)-10-chloro-8-fluoro-6-(((2R,7aS)-2-fluorotetrahydro-1H-pyrrolizin-7a(5H)-yl)methoxy)-1,2,3,12,13,13a-hexahydropyrrolo[1′,2′:5,6][1,5]oxazocino [4,3,2-de]quinazolin-9-yl)-7-fluorobenzo[b]thiophene-3-carbonitrile]: the IC50 at K-Ras G12S (setting [1]), at wildtype K-Ras (setting [2]), in the test on SW620 cells, at K-Ras G12V (setting [3]), in the test with GP2D cells and in the test with A549 cells was less than 5 µM throughout. Besides, the IC50 on K-Ras G12D (setting [4]) was less than 5 µM.

The values above are taken from patent publication US12059425B2, “Heterocyclic compounds and uses thereof” (Kumquat Biosciences Inc., priority 2022, dated 2024).
